Columns and labels:
Mus musculus [1] = test: Retention time in (R)-PIA) induced avoidance test (performed in mice) for antagonistic activity after peroral administration of 5 mg/kg; type: functional, organism-based; parameters: dose 5 mg/kg
Mus musculus [2] = test: Retention time in (R)-PIA) induced avoidance test (performed in mice) for antagonistic activity after p.o. administration of 1.25 mg/kg; type: functional, organism-based; parameters: dose 1.25 mg/kg
Mus musculus [3] = test: Acquisition time in (R)-PIA) induced avoidance test (performed in mice) for antagonistic activity after p.o. administration of 0.31 mg/kg; type: functional; conditions: route oral
Mus musculus [4] = test: Retention time in (R)-PIA) induced avoidance test (performed in mice) for antagonistic activity after peroral administration of 0.31 mg/kg; type: functional, organism-based; parameters: dose 0.31 mg/kg
Rattus norvegicus [5] = test: Retention time in Scopolamine induced avoidance test (performed in rat) for antagonistic activity after peroral administration of 20 mg/kg; type: functional, organism-based; parameters: dose 20 mg/kg
Mus musculus [6] = test: Acquisition time in (R)-PIA) induced avoidance test (performed in mice) for antagonistic activity after peroral administration of 20 mg/kg; type: functional; conditions: route oral
Rattus norvegicus [7] = test: Acquisition time in Scopolamine induced avoidance test (performed in rat) for antagonistic activity after p.o. administration of 0.31 mg/kg; type: functional; conditions: route oral
Rattus norvegicus [8] = test: Retention time in Scopolamine induced avoidance test (performed in […]) for antagonistic activity after peroral administration of 5 mg/kg; type: functional, organism-based; parameters: dose 5 mg/kg
Rattus norvegicus [9] = test: Retention time in Scopolamine induced avoidance test (performed in rat) for antagonistic activity after p.o. administration of 0.31 mg/kg; type: functional, organism-based; parameters: dose 0.31 mg/kg
Mus musculus [10] = test: Acquisition time in (R)-PIA) induced avoidance test (performed in mice) for antagonistic activity after peroral administration of 5 mg/kg; type: functional; conditions: route oral
Rattus norvegicus [11] = test: Acquisition time in Scopolamine induced avoidance test (performed in rat) for antagonistic activity after p.o. administration of 5 mg/kg; type: functional; conditions: route oral
Mus musculus [12] = test: Acquisition time in (R)-PIA) induced avoidance test (performed in mice) for antagonistic activity after peroral administration of 0.02 mg/kg; conditions: route oral
Adenosine A2 receptor = Adenosine A2 receptor (Rattus norvegicus, UniProt P29276+P30543); test: Binding affinity at Adenosine A2 receptor from rat striatal membranes by N-[3H] ethyladenosin-5'- uronamide displacement.
Mus musculus [13] = test: Acquisition time in (R)-PIA) induced avoidance test (performed in mice) for antagonistic activity after p.o. administration of 1.25 mg/kg; type: functional; conditions: route oral
Rattus norvegicus [14] = test: Acquisition time in Scopolamine induced avoidance test (performed in rat) for antagonistic activity after p.o. administration of 0.08 mg/kg; type: functional; conditions: route oral
Rattus norvegicus [15] = test: Acquisition time in Scopolamine induced avoidance test (performed in rat) for antagonistic activity after peroral administration of 1.25 mg/kg; type: functional; conditions: route oral
Mus musculus [16] = test: Retention time in (R)-PIA) induced avoidance test (performed in mice) for antagonistic activity after peroral administration of 0.02 mg/kg
Rattus norvegicus [17] = test: Acquisition time in Scopolamine induced avoidance test (performed in rat) for antagonistic activity after peroral administration of 20 mg/kg; type: functional; conditions: route oral
Rattus norvegicus [18] = test: Retention time in Scopolamine induced avoidance test (performed in rat) for antagonistic activity after peroral administration of 1.25 mg/kg; type: functional, organism-based; parameters: dose 1.25 mg/kg
Mus musculus [19] = test: Retention time in (R)-PIA) induced avoidance test (performed in mice) for antagonistic activity after peroral administration of 20 mg/kg; type: functional, organism-based; parameters: dose 20 mg/kg
Rattus norvegicus [20] = test: Retention time in Scopolamine induced avoidance test (performed in rat) for antagonistic activity after p.o. administration of 0.08 mg/kg; type: functional, organism-based; parameters: dose 0.08 mg/kg
Adenosine receptor A1 [21] = target: T1, Adenosine receptor A1 (Cavia porcellus, UniProt P47745); test: Binding affinity against Adenosine A1 receptor from guinea pig forebrain membranes by N6-[3H]- cyclohexyladenosine displacement.
T1 sequence (P47745 whole entry): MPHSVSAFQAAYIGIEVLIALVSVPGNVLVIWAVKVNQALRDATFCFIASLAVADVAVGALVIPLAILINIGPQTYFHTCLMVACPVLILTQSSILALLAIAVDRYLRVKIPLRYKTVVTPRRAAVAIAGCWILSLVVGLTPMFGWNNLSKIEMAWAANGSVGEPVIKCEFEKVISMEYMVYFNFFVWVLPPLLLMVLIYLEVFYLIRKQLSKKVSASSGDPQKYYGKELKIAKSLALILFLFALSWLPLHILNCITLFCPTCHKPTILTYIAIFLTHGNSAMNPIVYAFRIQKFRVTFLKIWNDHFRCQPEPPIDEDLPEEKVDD

Mus musculus [22] = test: Retention time in (R)-PIA) induced avoidance test (performed in mice) for antagonistic activity after peroral administration of 0.08 mg/kg; type: functional, organism-based; parameters: dose 0.08 mg/kg
Mus musculus [23] = test: Acquisition time in (R)-PIA) induced avoidance test (performed in mice) for antagonistic activity after peroral administration of 0.08 mg/kg; type: functional; conditions: route oral
Mus musculus [24] = test: Tested for locomotor activity after oral administration of […] for 120 min; type: functional
Mus musculus [25] = test: Tested for locomotor activity after oral administration of 5 mg/kg for 120 min; type: functional
Rattus norvegicus [26] = test: Acquisition time in Scopolamine induced avoidance test (performed in rat) for antagonistic activity after peroral administration of 5 mg/kg; type: functional; conditions: route oral
Mus musculus [27] = test: Tested for locomotor activity after oral administration of 10 mg/kg for 120 min; type: functional
Mus musculus [28] = test: Acquisition time in (R)-PIA) induced avoidance test (performed in mice) for antagonistic activity after peroral administration of 1.25 mg/kg; type: functional; conditions: route oral
Rattus norvegicus [29] = test: Acquisition time in Scopolamine induced avoidance test (performed in rat) for antagonistic activity after peroral administration of 0.08 mg/kg; type: functional; conditions: route oral
Adenosine receptor A1 [30] = target: T2, Adenosine receptor A1 (Rattus norvegicus, UniProt P25099); test: Tested for binding affinity against Adenosine A1 receptor from rat forebrain membranes, using N6-[3H]- cyclohexyladenosine as radioligand
T2 sequence (P25099 whole entry): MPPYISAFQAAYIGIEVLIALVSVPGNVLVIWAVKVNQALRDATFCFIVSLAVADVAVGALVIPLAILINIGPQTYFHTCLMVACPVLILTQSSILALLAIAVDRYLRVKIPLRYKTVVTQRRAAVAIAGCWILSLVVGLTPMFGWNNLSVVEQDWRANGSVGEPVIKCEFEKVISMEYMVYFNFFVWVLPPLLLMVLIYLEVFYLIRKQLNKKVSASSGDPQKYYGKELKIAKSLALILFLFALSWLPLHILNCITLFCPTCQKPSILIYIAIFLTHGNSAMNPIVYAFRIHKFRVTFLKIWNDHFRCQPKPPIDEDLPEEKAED

| Ki (Adenosine receptor A1 [21]) [nM] | Structure (SMILES) | Retention time (Mus musculus [1]) [s] | Retention time (Mus musculus [2]) [s] | Acquisition time (Mus musculus [3]) [s] | Retention time (Mus musculus [4]) [s] | Retention time (Rattus norvegicus [5]) [s] | Acquisition time (Rattus norvegicus [7]) [s] | Retention time (Rattus norvegicus [8]) [s] | Retention time (Rattus norvegicus [9]) [s] | Acquisition time (Mus musculus [10]) [s] | Acquisition time (Rattus norvegicus [11]) [s] | Acquisition time (Mus musculus [12]) [s] | Acquisition time (Mus musculus [13]) [s] | Acquisition time (Rattus norvegicus [14]) [s] | Acquisition time (Rattus norvegicus [15]) [s] | Retention time (Mus musculus [16]) [s] | Acquisition time (Rattus norvegicus [17]) [s] | Retention time (Rattus norvegicus [18]) [s] | Retention time (Rattus norvegicus [20]) [s] | Acquisition time (Mus musculus [23]) [s] | also measured |
| --- | --- | --- | --- | --- | --- | --- | --- | --- | --- | --- | --- | --- | --- | --- | --- | --- | --- | --- | --- | --- | --- |
| 23 | CCCn1c(=O)c2[nH]c(C3CCC(=O)C3)nc2n(CCc2ccc(N)cc2)c1=O (stereo unspecified) |  |  |  |  |  |  |  |  |  |  |  |  |  |  |  |  |  |  |  |  |
| 6.1 | CCCn1c(=O)c2[nH]c(C(C3CC3)C3CC3)nc2n(CCC)c1=S |  |  |  |  |  |  |  |  |  |  |  |  |  |  |  |  |  |  |  |  |

The remaining lines, values behind:

| Structure (SMILES) | Ki (Adenosine receptor A1 [21]) [nM] | Retention time (Mus musculus [1]) [s] | Retention time (Mus musculus [2]) [s] | Acquisition time (Mus musculus [3]) [s] | Retention time (Mus musculus [4]) [s] | Retention time (Rattus norvegicus [5]) [s] | Acquisition time (Rattus norvegicus [7]) [s] | Retention time (Rattus norvegicus [8]) [s] | Retention time (Rattus norvegicus [9]) [s] | Acquisition time (Mus musculus [10]) [s] | Acquisition time (Rattus norvegicus [11]) [s] | Acquisition time (Mus musculus [12]) [s] | Acquisition time (Mus musculus [13]) [s] | Acquisition time (Rattus norvegicus [14]) [s] | Acquisition time (Rattus norvegicus [15]) [s] | Retention time (Mus musculus [16]) [s] | Acquisition time (Rattus norvegicus [17]) [s] | Retention time (Rattus norvegicus [18]) [s] | Retention time (Rattus norvegicus [20]) [s] | Acquisition time (Mus musculus [23]) [s] | also measured |
| --- | --- | --- | --- | --- | --- | --- | --- | --- | --- | --- | --- | --- | --- | --- | --- | --- | --- | --- | --- | --- | --- |
| CCCn1c(=O)c2nc(C34CC5CC(CC3C5)C4)[nH]c2n(CCc2ccc(N)cc2)c1=O |  | 92.5 | 168 | 14.8 | 60.3 | 232 | 8.3 | 182 | 95.9 | 14.7 | 11.9 | 18.1 | 20.3 | 12 | 15.3 | 36 | 18.3 | 136 | 20.5 |  | Acquisition time (Mus musculus [6]): 14.7 s; Ki (Adenosine A2 receptor): > 100000 nM; Retention time (Mus musculus [19]): 98.7 s |
| CCCn1c(=O)c2nc(C34CC5CC(CC(C5)C3)C4)[nH]c2n(CCC)c1=O |  | 221 | 490 | 19.6 | 302 | 35 | 16.6 | 16.3 | 21.3 | 13.7 | 11.7 | 10.1 | 19.8 | 11 | 12.8 | 17.6 | 8.4 | 14.1 | 34.8 | 19.1 | Retention time (Mus musculus [22]): 122 s |
| Cn1c(=O)c2nc[nH]c2n(C)c1=O.O [THEOPHYLLINE] |  |  |  | 35.8 |  |  | 12.2 |  |  | 20.3 |  |  |  |  | 11.1 |  | 10.6 |  |  | 30.8 | Locomotor activity (Mus musculus [24]): 5914 Counts; Locomotor activity (Mus musculus [25]): 7682 Counts; Acquisition time (Rattus norvegicus [26]): 10.8 s; Locomotor activity (Mus musculus [27]): 11031 Counts; Acquisition time (Mus musculus [28]): 16.2 s; Acquisition time (Rattus norvegicus [29]): 10.6 s |
| CCCN1C(=O)N2C[C@@H](CC)N=C2c2[nH]c(C34CC5CC(CC3C5)C4)nc21 |  | 186 | 326 | 15.9 | 192 | 76.6 | 14.1 | 42.1 | 74.1 | 23.7 | 14.4 | 13.6 | 16.5 | 17.3 | 20.1 | 16.1 | 17.2 | 80.9 | 27.1 | 35.1 | Ki (Adenosine receptor A1 [30]): 0.56 nM; Retention time (Mus musculus [22]): 156 s |
